Experimental data: PubChem BioAssay (NCI)
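These data come from cells grown in 96-well plates and exposed to compound for 48 hours at five concentrations. TGI is the concentration that stops growth completely.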

Columns and labels:
Test in all cases: NCI-60 cell line screen, 48 h
[1] = tested on: CAKI-1 renal
[2] = tested on: HOP-92 NSCLC
[3] = tested on: MDA-MB-231 breast
[4] = tested on: HCT-15 colon
[5] = tested on: UO-31 renal
[6] = tested on: M14 melanoma
[7] = tested on: NCI-H23 lung
[8] = tested on: SR leukemia
[9] = tested on: PC-3 prostate
[10] = tested on: RXF 393 renal
[11] = tested on: OVCAR-3 ovarian
[12] = tested on: SF-295 CNS
[13] = tested on: ACHN renal
[14] = tested on: DU-145 prostate
[15] = tested on: SF-539 CNS
[16] = tested on: SNB-19 CNS
[17] = tested on: MALME-3M melanoma
[18] = tested on: HCT-116 colon
[19] = tested on: SNB-75 CNS
[20] = tested on: T-47D breast
[21] = tested on: IGROV1 ovarian
[22] = tested on: A498 renal
[23] = tested on: NCI-H522 lung
[24] = tested on: U251 CNS
[25] = tested on: A549 NSCLC
[26] = tested on: KM12 colon
[27] = tested on: CCRF-CEM leukemia
[28] = tested on: SF-268 CNS
[29] = tested on: SN12C renal
[30] = tested on: K-562 leukemia
[31] = tested on: OVCAR-5 ovarian
[32] = tested on: TK-10 renal
[33] = tested on: SK-MEL-28 melanoma
[34] = tested on: HCC-2998 colon
[35] = tested on: RPMI-8226 leukemia
[36] = tested on: NCI-H460 lung
[37] = tested on: 786-0 renal
[38] = tested on: MCF7 breast
[39] = tested on: SW-620 colon
[40] = tested on: HOP-62 NSCLC
[41] = tested on: MDA-N
[42] = tested on: HT29 colon
[43] = tested on: NCI-H226 lung
[44] = tested on: OVCAR-8 ovarian
[45] = tested on: OVCAR-4 ovarian
[46] = tested on: SK-MEL-5 melanoma
[47] = tested on: EKVX NSCLC
[48] = tested on: HL-60(TB) leukemia
[49] = tested on: MOLT-4 leukemia
[50] = tested on: BT-549 breast
[51] = tested on: UACC-257 melanoma
[52] = tested on: LOX IMVI melanoma
[53] = tested on: HS 578T breast
[54] = tested on: SK-MEL-2 melanoma
[55] = tested on: NCI/ADR-RES ovarian
[56] = tested on: UACC-62 melanoma
[57] = tested on: COLO 205 colon
[58] = tested on: SK-OV-3 ovarian

SMILES: O=C(c1cc(Cl)ccc1Cl)N1CCN(C(=O)c2cc(Cl)ccc2Cl)CC1
- TGI [1]: > 100 µM
- TGI [2]: > 100 µM
- TGI [3]: > 100 µM
- TGI [4]: > 100 µM
- TGI [5]: > 100 µM
- TGI [6]: > 100 µM
- TGI [7]: > 100 µM
- TGI [8]: > 100 µM
- TGI [9]: > 100 µM
- TGI [10]: > 100 µM
- TGI [11]: > 100 µM
- TGI [12]: > 100 µM
- TGI [13]: > 100 µM
- TGI [14]: > 100 µM
- TGI [15]: > 100 µM
- TGI [16]: > 100 µM
- TGI [17]: > 100 µM
- TGI [18]: > 100 µM
- TGI [19]: > 100 µM
- TGI [20]: > 100 µM
- TGI [21]: > 100 µM
- TGI [22]: > 100 µM
- TGI [23]: > 100 µM
- TGI [24]: > 100 µM
- TGI [25]: > 100 µM
- TGI [26]: > 100 µM
- TGI [27]: > 100 µM
- TGI [28]: > 100 µM
- TGI [29]: > 100 µM
- TGI [30]: > 100 µM
- TGI [31]: > 100 µM
- TGI [32]: > 100 µM
- TGI [33]: > 100 µM
- TGI [34]: > 100 µM
- TGI [35]: > 100 µM
- TGI [36]: > 100 µM
- TGI [37]: > 100 µM
- TGI [38]: > 100 µM
- TGI [39]: > 100 µM
- TGI [40]: > 100 µM
- TGI [41]: > 100 µM
- TGI [42]: > 100 µM
- TGI [43]: > 100 µM
- TGI [44]: > 100 µM
- TGI [45]: > 100 µM
- TGI [46]: > 100 µM
- TGI [47]: > 100 µM
- TGI [48]: > 100 µM
- TGI [49]: > 100 µM
- TGI [50]: > 100 µM
- TGI [51]: > 100 µM
- TGI [52]: > 100 µM
- TGI [53]: > 100 µM

SMILES: COc1cc(C2c3cc4c(cc3OC(NNC(N)=O)C2C)OCO4)cc(OC)c1O (stereo unspecified)
- TGI [1]: > 100 µM
- TGI [2]: > 90.2 µM
- TGI [3]: > 56.9 µM
- TGI [4]: > 100 µM
- TGI [5]: > 100 µM
- TGI [6]: > 42.6 µM
- TGI [7]: > 100 µM
- TGI [8]: > 100 µM
- TGI [9]: > 100 µM
- TGI [54]: > 74.4 µM
- TGI [10]: > 20.9 µM
- TGI [11]: 10.1 µM
- TGI [12]: > 85.7 µM
- TGI [13]: > 100 µM
- TGI [14]: 33.7 µM
- TGI [15]: 4.71 µM
- TGI [16]: > 100 µM
- TGI [17]: > 100 µM
- TGI [18]: > 56.5 µM
- TGI [19]: > 100 µM
- TGI [20]: > 100 µM
- TGI [21]: > 100 µM
- TGI [22]: 35.7 µM
- TGI [23]: 10.5 µM
- TGI [24]: > 53.1 µM
- TGI [25]: > 80.9 µM
- TGI [26]: > 69.9 µM
- TGI [27]: > 100 µM
- TGI [28]: > 100 µM
- TGI [29]: > 90.4 µM
- TGI [30]: > 100 µM
- TGI [31]: > 100 µM
- TGI [55]: > 76.1 µM
- TGI [32]: > 73.8 µM
- TGI [33]: > 100 µM
- TGI [34]: 6.5 µM
- TGI [35]: > 31.8 µM
- TGI [36]: > 100 µM
- TGI [37]: > 80.1 µM
- TGI [56]: > 100 µM
- TGI [38]: > 55 µM
- TGI [39]: > 100 µM
- TGI [40]: > 100 µM
- TGI [41]: 1.02 µM
- TGI [42]: > 56.8 µM
- TGI [57]: 9.4 µM
- TGI [43]: 27.1 µM
- TGI [44]: > 100 µM
- TGI [45]: > 100 µM
- TGI [46]: 18 µM
- TGI [47]: > 100 µM
- TGI [48]: 7.84 µM
- TGI [49]: > 100 µM
- TGI [50]: > 100 µM
- TGI [51]: > 100 µM
- TGI [52]: > 100 µM
- TGI [53]: > 100 µM
- TGI [58]: > 51.5 µM
